Assay results: patent US4064345A, “Cephalosporins derivatives 7-cyclized α-amino-3-heterothio” (Bristol-Myers Company, priority 1976, dated 1977)
Values after ≈ are worked out from the molar mass of the structure shown. “Also recorded” adds a separate entry of the source.

Legend:
Str. pyogenes A9604 = assay: Antibiotic spectrum in nutrient broth (MIC); assay type: cell-based; settings: Streptococcus pyogenes, 10^-3 dilution of overnight broth culture, 45% AAB + serum + 50% broth, BL-S1057/BL-S1058 adjusted for 80%/59% content of BL-S643
Description: (§1) Antibiotic Spectrum of BL-S643 Derivatives in Nutrient Broth
(§2) *45% AAB + serum + 50% broth listed above.
(§3) **Dilution of overnight broth
(§4) ^(1) Adjusted for 80% content of BL-S643.
(§5) ^(2) Adjusted for 59% content of BL-S643.
(§6) In other words, the numerical values are lowered, i.e. improved. This

S. pneumoniae A9585 = assay: Antibiotic spectrum in nutrient broth (MIC); assay type: cell-based; settings: Streptococcus pneumoniae, 10^-3 dilution of overnight broth culture, 45% AAB + serum + 50% broth, BL-S1057/BL-S1058 adjusted for 80%/59% content of BL-S643
Description: as §1, §2, §3, §4, §5, §6

[1] = system: S. aureus Meth-Res A15097; assay: Antibiotic spectrum in nutrient broth (MIC); assay type: cell-based; settings: Staphylococcus aureus, 10^-3 dilution, BL-S1057/BL-S1058 adjusted for 80%/59% content of BL-S643
Description: as §1, §3, §4, §5, §6

K. pneumoniae A9977 = assay: Antibiotic spectrum in nutrient broth (MIC); assay type: cell-based; settings: Klebsiella pneumoniae, 10^-4 dilution, BL-S1057/BL-S1058 adjusted for 80%/59% content of BL-S643
Description: as §1, §3, §4, §5, §6

S. aureus Smith A9537 = assay: Antibiotic spectrum in nutrient broth (MIC); assay type: cell-based; settings: Staphylococcus aureus, 10^-4 dilution, BL-S1057/BL-S1058 adjusted for 80%/59% content of BL-S643
Description: as §1, §3, §4, §5, §6

Pr. mirabilis A9900 = assay: Antibiotic spectrum in nutrient broth (MIC); assay type: cell-based; settings: Proteus mirabilis, 10^-4 dilution, BL-S1057/BL-S1058 adjusted for 80%/59% content of BL-S643
Description: as §1, §3, §4, §5, §6

Pr. morganii A15153 = assay: Antibiotic spectrum in nutrient broth (MIC); assay type: cell-based; settings: Morganella morganii, 10^-4 dilution, BL-S1057/BL-S1058 adjusted for 80%/59% content of BL-S643
Description: as §1, §3, §4, §5, §6

S. aureus BX1633 A9606 = assay: Antibiotic spectrum in nutrient broth (MIC); assay type: cell-based; settings: Staphylococcus aureus, BX1633A9606, nutrient broth, BL-S1057/BL-S1058 adjusted for 80%/59% content of BL-S643
Description: as §1, §3, §4, §5, §6

Ent. cloacae A9657 = assay: Antibiotic spectrum in nutrient broth (MIC); assay type: cell-based; settings: Enterobacter cloacae, 10^-4 dilution, BL-S1057/BL-S1058 adjusted for 80%/59% content of BL-S643
Description: as §1, §3, §4, §5, §6

Ent. cloacae A9659 = assay: Antibiotic spectrum in nutrient broth (MIC); assay type: cell-based; settings: Enterobacter cloacae, 10^-4 dilution, BL-S1057/BL-S1058 adjusted for 80%/59% content of BL-S643
Description: as §1, §3, §4, §5, §6

Ser. marcescens A20019 = assay: Antibiotic spectrum in nutrient broth (MIC); assay type: cell-based; settings: Serratia marcescens, 10^-4 dilution, BL-S1057/BL-S1058 adjusted for 80%/59% content of BL-S643
Description: as §1, §3, §4, §5, §6

Ent. cloacae A9656 = assay: Antibiotic spectrum in nutrient broth (MIC); assay type: cell-based; settings: Enterobacter cloacae, 10^-4 dilution, BL-S1057/BL-S1058 adjusted for 80%/59% content of BL-S643
Description: as §1, §3, §4, §5, §6

E. coli Juhl A15119 = assay: Antibiotic spectrum in nutrient broth (MIC); assay type: cell-based; settings: Escherichia coli, JUHLA15119, 10^-4 dilution, BL-S1057/BL-S1058 adjusted for 80%/59% content of BL-S643
Description: as §1, §3, §4, §5, §6

Sal. enteritidis A9531 = assay: Antibiotic spectrum in nutrient broth (MIC); assay type: cell-based; settings: Salmonella enterica, 10^-4 dilution, BL-S1057/BL-S1058 adjusted for 80%/59% content of BL-S643
Description: as §1, §3, §4, §5, §6

K. pneumoniae A15130 = assay: Antibiotic spectrum in nutrient broth (MIC); assay type: cell-based; settings: Klebsiella pneumoniae, 10^-4 dilution, BL-S1057/BL-S1058 adjusted for 80%/59% content of BL-S643
Description: as §1, §3, §4, §5, §6

Ps. aeruginosa A9843A = assay: Antibiotic spectrum in nutrient broth (MIC); assay type: cell-based; settings: Pseudomonas aeruginosa
Description: as §1, §3, §4, §5, §6

E. coli A9675 = assay: Antibiotic spectrum in nutrient broth (MIC); assay type: cell-based; settings: Escherichia coli, 10^-4 dilution, BL-S1057/BL-S1058 adjusted for 80%/59% content of BL-S643
Description: as §1, §3, §4, §5, §6

[2] = Paper chromatograms of rat urine after IM administration (antibiotically active metabolites); assay type: in vivo; settings: urine 0-2 and 2-4 hours; for Antibiotically active metabolites in rat urine (spots on paper chromatogram): descending chromatography system No. 9
Method: Paper chromatograms were run on rat urine collected between 0 and 2 and between 2 and 4 hours following IM administration of BL-S1057, 1058 and 643, for the detection of antibiotically active metabolites using descending chromatography with system No. 9 (butyl acetaten-butanol:glacial acetic acid:H2 O = 80:15:40:24).

[3] = Liquid chromatography, % hydrolyzed in buffer; assay type: physicochemical; settings: 1 mg./ml.
Method: f. Liquid chromatography = 100% hydrolyzed in pH 6.1 buffer within 1 hour at room temperature (concentration = 1 mg./ml.)
d. Liquid chromatography (1 mg./ml. in pH 6 buffer)

Solubility in water = assay type: physicochemical
Method: d. Solubility = >400 mg./ml. in water

[4] = Bio-assay (using cefatrizine as the standard); assay type: cell-based
Description: a. Bio-assay (using cefatrizine as the standard) = 759 mcg./mg.
a. Bio-assay (using cefatrizine as the standard) = 685 mcg./mg.

[5] = Paper strip chromatography (hydrolysis to BL-S643); assay type: physicochemical; settings: 0 and 1 hour at 37° C.; 0.2 mg./ml.
[6] = SMITHA9537, nutrient broth +50% serum
[7] = SMITHA9537, nutrient broth, no serum

SMILES | MIC (Str. pyogenes A9604) | MIC (S. pneumoniae A9585) | MIC [1] | MIC (K. pneumoniae A9977) | MIC (S. aureus Smith A9537; [6]) | MIC (S. aureus Smith A9537; [7]) | MIC (Pr. mirabilis A9900) | MIC (Pr. morganii A15153) | MIC (S. aureus BX1633 A9606; 10^-2 dilution) | MIC (S. aureus BX1633 A9606; 10^-3 dilution) | MIC (Ent. cloacae A9657) | MIC (Ent. cloacae A9659) | MIC (Ser. marcescens A20019) | MIC (Ent. cloacae A9656) | MIC (E. coli Juhl A15119) | MIC (Sal. enteritidis A9531) | MIC (K. pneumoniae A15130) | MIC (Ps. aeruginosa A9843A) | MIC (E. coli A9675) | Antibiotically active metabolites in rat urine (spots on paper chromatogram) [2] | also measured
Cc1nnc(SCC2=C(C(=O)O)N3C(=O)C(NC(=O)[C@H](N)c4ccc(O)cc4)C3SC2)s1 (some centres unmarked) [BL-S643, reference compound] | 0.016 µg/mL | 0.03 µg/mL | 4 µg/mL (≈ 8.1 µM) | 0.5 µg/mL (≈ 1.01 µM) | 8 µg/mL (≈ 16.2 µM) | 0.5 µg/mL (≈ 1.01 µM) | 0.5 µg/mL (≈ 1.01 µM) | 16 µg/mL (≈ 32.4 µM) | 4 µg/mL (≈ 8.1 µM) | 1 µg/mL (≈ 2.03 µM) | 4 µg/mL (≈ 8.1 µM) | 32 µg/mL (≈ 64.8 µM) | 125 µg/mL (≈ 253 µM) | > 125 µg/mL | 1 µg/mL (≈ 2.03 µM) | 0.25 µg/mL (≈ 0.506 µM) | 4 µg/mL (≈ 8.1 µM) | > 125 µg/mL | 4 µg/mL (≈ 8.1 µM) | A single, identical spot | –
Cc1nnc(SCC2=C(C(=O)O)N3C(=O)C(N4C(=O)[C@@H](c5ccc(O)cc5)NC4c4ccco4)C3SC2)s1 (some centres unmarked) [BL-S1057] | 0.008 µg/mL | 0.016 µg/mL | 2 µg/mL (≈ 3.5 µM) | 0.5 µg/mL (≈ 0.875 µM) | 8 µg/mL (≈ 14 µM) | 0.5 µg/mL (≈ 0.875 µM) | 0.5 µg/mL (≈ 0.875 µM) | 16 µg/mL (≈ 28 µM) | 4 µg/mL (≈ 7 µM) | 1 µg/mL (≈ 1.75 µM) | 0.5 µg/mL (≈ 0.875 µM) | 16 µg/mL (≈ 28 µM) | 125 µg/mL (≈ 219 µM) | > 125 µg/mL | 1 µg/mL (≈ 1.75 µM) | 0.25 µg/mL (≈ 0.437 µM) | 4 µg/mL (≈ 7 µM) | > 125 µg/mL | 4 µg/mL (≈ 7 µM) | A single, identical spot | degraded at 1 h ([3]; within 1 hour, pH 6.1 buffer, room temperature): 100%; solubility (Solubility in water): > 400 mg/mL; Hydrolysis to parent compound (BL-S643) [2]: complete hydrolysis; Bio-assay [4]: 759 µg/mg; Paper strip chromatography zones [5]: Primarily 1 zone at Rf of BL-S643
Cc1nnc(SCC2=C(C(=O)O)N3C(=O)C(N4C(=O)[C@@H](c5ccc(O)cc5)NC4c4ccc(S(=O)(=O)O)o4)C3SC2)s1 (some centres unmarked) [BL-S1058] | 0.008 µg/mL | 0.016 µg/mL | 2 µg/mL (≈ 3.07 µM) | 0.5 µg/mL (≈ 0.767 µM) | 8 µg/mL (≈ 12.3 µM) | 0.25 µg/mL (≈ 0.384 µM) | 0.5 µg/mL (≈ 0.767 µM) | 16 µg/mL (≈ 24.6 µM) | 4 µg/mL (≈ 6.14 µM) | 0.5 µg/mL (≈ 0.767 µM) | 0.5 µg/mL (≈ 0.767 µM) | 16 µg/mL (≈ 24.6 µM) | 125 µg/mL (≈ 192 µM) | > 125 µg/mL | 1 µg/mL (≈ 1.53 µM) | 0.13 µg/mL (≈ 0.199 µM) | 2 µg/mL (≈ 3.07 µM) | > 125 µg/mL | 2 µg/mL (≈ 3.07 µM) | A single, identical spot | % Hydrolyzed ([3]; 0 hours, pH 6 buffer): 25.4%; degraded at 1 h ([3]; 1 hour, pH 6 buffer): 46.5%; degraded at 2 h ([3]; 2 hours, pH 6 buffer): 59%; Hydrolysis to parent compound (BL-S643) [2]: complete hydrolysis; Bio-assay [4]: 685 µg/mg; Paper strip chromatography zones [5]: Primarily 1 zone at Rf of BL-S643; also recorded: evidence of a second zone
